Data taken from publication PMC12279247, “Inhibition of RACK1‐Mediated NLRP3 Oligomerization (Active Conformation) Ameliorates Acute Respiratory Distress Syndrome” (Advanced Science, 2025).

Molecular target: T1, recombinant human RACK1 protein (Homo sapiens, UniProt P63244)
T1 construct: commercial recombinant protein
Assay: surface plasmon resonance, bigelovin loaded on CM5 chip, RACK1 flowed over
Type: binding
Conditions: PBS pH 7.4, 0.05% Tween-20, 22 °C; covalent, Cys168

In the case of `C=C1C(=O)O[C@H]2C[C@@H](C)[C@@H]3C=CC(=O)[C@@]3(C)[C@@H](OC(C)=O)[C@H]12` [bigelovin], the Kd is reported as 0.24 µM.
